In one assay the test system is IL-6. Kind of assay: IL-6 mRNA expression induced by PMA and A23187 in HMC-1 (real-time PCR). The assay is classed as cell-based, human. The settings on record: HMC-1, 2 μg/mL, 50 nM PMA + 1 μM A23187, 5 hours (FIG. 6c). As for the experimental part:
In order to investigate the effect of homoisoflavanone on the release of pro-inflammatory cytokines induced by phorbol 12-myristate 13-acetate and A23187 in HMC-1, 5×10^5 HMC-1 cells were inoculated on a 60-mm culture dish and cultured in IMDM containing 10% FBS for 48 hours. Then, after treating with homoisoflavanone at 2 μg/mL, the cells were treated with 50 nM phorbol 12-myristate 13-acetate and 1 μM A23187 to induce release of pro-inflammatory cytokines, and then further cultured for 5 hours.
After extracting RNA from the cells of each test group using TRIzol, cDNA was prepared by carrying out PCR using the RNA as a template. Then, the mRNA expression of IL-6 and IL-8 was measured through real-time PCR using the cDNA as template and using commercially available IL-6 and IL-8 primers. The expression level of the pro-inflammatory cytokines was compared relative to the non-treated group.

The subject of assay [1] is cPLA2. As to the kind of experiment: cPLA2 phosphorylation induced by PMA and A23187 in HMC-1 (Western blot). Format: cell-based, human. The settings on record: HMC-1, 2 μg/mL, 50 nM PMA + 1 μM A23187, 4 hours (FIG. 7c). On the procedure:
1×10^6 HMC-1 cells were inoculated on a 100-mm culture dish and cultured in IMDM containing 10% FBS for 48 hours. […] Then, Western blotting was carried out in the same manner as in Example 2-1 except for using rabbit anti-p-cytosolic phospholipase A2 (cPLA2) antibody, rabbit anti-cPLA2 antibody, rabbit anti-ERK antibody and rabbit anti-p-ERK antibody (Cell Signaling) and using anti-rabbit IgG-HRP conjugation antibody (Zymed) as secondary antibody.

The next assay has as its system HMC-1 cells. Kind of assay: Degranulation induced by PMA and A23187 in HMC-1 (transmission electron microscopy). The assay is classed as cell-based, human. The settings on record: HMC-1, 2 μg/mL, 50 nM PMA + 1 μM A23187, 6 hours (FIG. 8a). As for the experimental part: In order to investigate the effect of homoisoflavanone on COX-2 expression induced by phorbol 12-myristate 13-acetate and A23187 in HMC-1, 1×10^5 HMC-1 cells were inoculated on a 6-well plate and cultured in IMDM containing 10% FBS for 48 hours. Then, after treating with homoisoflavanone at 2 μg/mL for 1 hour, the cells were treated with 50 nM phorbol 12-myristate 13-acetate and 1 μM A23187 to induce COX-2 expression, and then further cultured for 6 hours. Then, the cells were fixed with 2.5% glutaraldehyde and frozen with liquid nitrogen. The cells were detached from the plate by applying heat, sliced into […], attached on grids, and observed with a transmission electron microscope (TEM).

Another assay deals with leukotriene B4. As to the kind of experiment: Release of leukotriene B4 induced by PMA and A23187 in HMC-1 (enzyme immunoassay). The assay is classed as cell-based, human. The text has this:
Phorbol 12-myristate 13-acetate and A23187 lead to degranulation of human mast cells (HMC), causing the mast cells to release not only their histamine or serotonin but also newly produced inflammatory factors such as pro-inflammatory cytokines, prostaglandins and leukotrienes. It was investigated whether homoisoflavanone has anti-inflammatory effect in mast cells as in Examples 4 and 5. In order to investigate the effect of homoisoflavanone on the release of leukotriene induced by phorbol 12-myristate 13-acetate and A23187 in HMC-1, 1×10^6 HMC-1 cells were inoculated on a 100-mm culture dish and cultured in Iscove's modified Dulbecco's medium (IMDM, GIBCO) containing 10% FBS for 48 hours. Then, after treating with homoisoflavanone at 2 μg/mL or with mizolastine at 10 μg/mL for comparison for 1 hour, the cells were treated with 50 nM phorbol 12-myristate 13-acetate and 1 μM A23187 to induce release of leukotriene, and then further cultured for 21 hours. Then, the supernatant was collected and the quantity of released leukotriene B4 and C4 was measured using a leukotriene B4, C4 enzyme immunoassay kit (Sapphire Bioscience, Australia).

Assay [2] concerns cPLA2. Kind of assay: UV-induced cPLA2 phosphorylation in HaCaT cells (Western blot). The assay is classed as cell-based, human. The settings on record: 1 μg/mL, UV (FIG. 2b). On the procedure: (§1) In order to identify the intracellular factors affecting COX-2 expression that are affected by homoisoflavanone, Western blotting was carried out in the same manner as in Example 2-1 except for treating with homoisoflavanone at 1 μg/mL, irradiating UV for 45 minutes and using rabbit anti-p-cytosolic phospholipase A2 (cPLA2) antibody, rabbit anti-cPLA2 antibody, rabbit anti-ERK antibody, rabbit anti-p-ERK antibody, rabbit anti-p38 antibody or rabbit anti-p-p38 antibody and using anti-rabbit IgG-HRP conjugation antibody (Zymed) as secondary antibody. Positive control groups were treated with 1 μM SB203580 (A.G. Scientific, Inc.) as p38 inhibitor or 10 μM PD98059 (A.G. Scientific, Inc.) as MEK 1 inhibitor instead of homoisoflavanone.

For another assay, the system named is COX-2. Kind of assay: COX-2 expression induced by PMA and A23187 in human mast cells (Western blot). The assay is classed as cell-based. The settings on record: HMC-1, homoisoflavanone 2 μg/mL or celecoxib 60 μM, 50 nM PMA + 1 μM A23187, 21 hours (FIG. 7a). As for the experimental part:
In order to investigate the effect of homoisoflavanone on COX-2 expression induced by phorbol 12-myristate 13-acetate and A23187 in human mast cells, 1×10^6 HMC-1 cells were inoculated on a 100-mm culture dish and cultured in IMDM containing 10% FBS for 48 hours.

A further assay deals with ERK. Kind of assay: UV-induced ERK phosphorylation in HaCaT cells (Western blot). Format: cell-based, human. The settings on record: 1 μg/mL, UV (FIG. 2d). On the procedure:
as §1

Another assay concerns NF-κB. As to the kind of experiment: UV-induced NF-κB nuclear translocation in HaCaT cells (immunocytochemical staining). Format: cell-based, human. The settings on record: 1 μg/mL, UV 100 J/m^2, 4 hours (FIG. 2e). As for the experimental part: In order to investigate whether the transcription factor NF-κB is activated, human keratinocytes HaCaT cells were immunocytochemically stained as follows.
After inoculating the cells on a 14-mm culture slide, the cells were cultured in DMEM containing 10% FBS for 24 hour. Then, the cells were starved by culturing for 24 hours in DMEM containing 1% FBS. Then, after treating with homoisoflavanone at 1 μg/mL for 1 hour, the cells were washed 3 times with PBS and irradiated with UV at 100 J/m^2. Immediately after the UV radiation, the cells were washed again with PBS and further cultured for 4 hours in DMEM containing 1% FBS while treating with homoisoflavanone at the same concentration. Then, the cells were fixed with methanol for 5 minutes and then subjected to immunocytochemical staining.
The fixed cells were blocked with 10% normal goat serum and then washed 3 times with PBS. Then, after fluorescence staining NF-κB using rabbit anti-NF-κB antibody (SantaCruz, USA) and Alexa 488-conjugated anti-rabbit IgG secondary antibody (Invitrogen, USA), counter staining was carried out using Hoechst (Sigma, St. Louis, Mo.).

For the next assay, the system named is p38. Kind of assay: UV-induced p38 phosphorylation in HaCaT cells (Western blot). Format: cell-based, human. The settings on record: 1 μg/mL, UV (FIG. 2c). On the procedure: as §1

Turning to `COc1ccc(CC2COc3cc(O)cc(O)c3C2=O)cc1O` (stereo not shown) [homoisoflavanone], in the assay with IL-6, the “inhibition of release (mRNA expression) of IL-6” value is given as 50%. The cPLA2 phosphorylation entry with cPLA2 [1] is reported as “inhibited”. Also, the “release of intracellular substances (degranulation, TEM)” value in the assay with HMC-1 cells is on record as “inhibited”. Besides, the “leukotriene B4 release when treated alone, versus non-treated group” value with leukotriene B4 (HMC-1, homoisoflavanone 2 μg/mL or mizolastine 10 μg/mL alone, without PMA/A23187 (FIG. 6a)) is reported as “no appreciable difference”. Also, in the assay with leukotriene B4 (HMC-1, homoisoflavanone 2 μg/mL or mizolastine 10 μg/mL, 50 nM PMA + 1 μM A23187, 21 hours (FIG. 6a)), the “inhibition of release of leukotriene B4” value came to 70%. In addition, the “phosphorylation of cPLA2” value in the assay with cPLA2 [2] is “inhibited”. The “inhibition of COX-2 expression” value with COX-2 came to 80%. The “phosphorylation of ERK” value in the assay on ERK was “inhibited”. In the assay on NF-κB, the “migration of NF-κB into the nucleus induced by UV radiation” value is “inhibits”. Also, the “phosphorylation of p38” value in the assay with p38 is “inhibited”.
